For assay [1], the system named is SD rat platelets. The assay can be described thus: Collagen-VWF-platelet adhesion assay. Type of assay: cell-based. The note with it: 1 μM IOX2-treated PHD2 protein, 10 μg/mL type I collagen; SD rat plasma then platelets. The procedure: (§1) The binding of platelets to collagen occurs mainly through VWF as a junction. PHD2 promotes the hydroxylation of collagen to form a three-dimensional structure to better bind to VWF. To verify the above principle, 10 μg/mL type I collagen is mixed with 1 μM IOX2-treated PHD2 protein and inoculated into a black 96-well plate, incubated at 4° C. overnight. Parallel triplicates, for the first one, SD rat platelets (2×10^7 cells/mL) are added and incubated at 37° C. for 90 minutes, after full washing with PBS, the fixed platelets are stained with Calcein-AM dye. For the second one, the primary antibody of VWF (Beijing Boaosen Biology technology Co., LTD., bs-20428R) is incubated at 4° C. overnight, after the excess primary antibody is washed away by PBS, the fluorescent secondary antibody (Abcam, ab150077) is incubated at 37° C. for 1 hour, and the excess secondary antibody is washed away. For the third one, SD rat plasma is added, incubated at room temperature for 4 hours, and then SD rat platelets (2×10^7 cells/mL) are added, incubated at 37° C. for 90 minutes, after full washing with PBS, the fixed platelets are stained with Calcein-AM dye. The fluorescence values of respective groups are measured by a multifunctional microplate reader at the excitation wavelength of 488 nm and the emission wavelength of 525 nm.

In a further assay the test system is binding of collagen-VWF. Description: Collagen-VWF binding assay. The note with it: 1 μM IOX2-treated PHD2 protein, 10 μg/mL type I collagen; VWF antibody detection. The procedure: as §1
Assay [2] deals with SD rat platelets. The assay can be described thus: Platelet adhesion to collagen on glass slides, fluorescence imaging analysis. Type of assay: cell-based. The settings on record: IOX2 0.1 μM, 1 μM, 10 μM incubated with 100 μg/mL PHD2 protein; 10 μg/mL type I collagen. On the procedure: Different doses of PHD2 inhibitor IOX2 (0.1 μM, 1 μM, 10 μM) are taken and incubated with 100 μg/mL PHD2 protein at 4° C. for 8 hours, then 10 μg/mL type I collagen is mixed with the above solution and added dropwise to glass slides, and incubated at 4° C. overnight. SD rat platelets (2×10^7 cells/mL) are then inoculated on the glass slides and incubated at 37° C. for 90 minutes. After being fully washed by PBS, the fixed platelets are stained with Calcein-AM dye, fluorescence imaging analysis is performed using fluorescence microscope (Leica TCS SP8, Germany), and statistical analysis is performed on platelets with collagen adhesion using Image J software. The results are shown as in FIG. 5A.

For assay [3], the system named is SD rat platelets. The assay can be described thus: Collagen-platelet adhesion assay. Type of assay: cell-based. The settings on record: 1 μM IOX2-treated PHD2 protein, 10 μg/mL type I collagen. On the procedure: as §1
For assay [4], the system named is soft tissue injury in rats. The assay can be described thus: Blood microcirculation disorder induced by acute soft tissue injury in rats. Type of assay: in vivo, SD rats. The settings on record: N-acetylcysteine 70 mg/kg/d i.p., ginsenoside CK 25 and 12.5 mg/kg/d i.p., vs model group; for whole blood viscosity: low, medium and high shear rate. The procedure:
SD male rats are taken and randomly divided into a blank control group, a model group, a positive control group (N-acetylcysteine, intraperitoneally injected at 70 milligrams per kilogram per day abbreviated as mg/kg/d), and high and low dose ginsenoside CK groups (intraperitoneally injected at 25 mg/kg/d and 12.5 mg/kg/d). The blank control group and the model group are given the same volume of sterile drinking water in the same manner. The molding is investigated three days after pre-administration. The rats are first anesthetized with 1% pentobarbital sodium (40 mg/kg), and the hair of the right buttocks and posterior thighs of the anesthetized rats are removed and fixed on the plate of an acute soft tissue injury modeling device. A 100 g weight is selected to impact the lateral aspect of the mid-right calf with five free-falls from a height of 100 centimeters (cm) causing soft tissue injury. The rats with successful modeling are continued to be administered for 4 days, and 1 hour after the last administration, the rats are anesthetized, blood is collected from the abdominal aorta with a blood viscometer to detect the viscosity of whole blood of the rats with high shear rate [200 s], medium shear rate [30 s], low shear rate [3 s], and low shear rate [1 s]. Coagulation parameters, such as erythrocyte aggregation index, erythrocyte packed-cell volume, platelet number and mean platelet volume, are determined by using a blood cell analyzer.

The subject of assay [5] is LPS-induced DIC model in mice. The assay can be described thus: LPS-induced disseminated intravascular coagulation (DIC) model in mice. Type of assay: in vivo. The settings on record: aspirin 10 mg/kg taken orally, Daprodustat 10 mg/kg intraperitoneal injection. On the procedure:
The sh-PHD2 mice and sh-ctrl blank mice are randomly divided into a blank group and a model group, with 6 mice in each group. The model group is injected intraperitoneally with 10 milligrams per kilogram (mg/kg) lipopolysaccharide abbreviated as LPS (Beijing Solarbio Science & Technology Co., Ltd., Cat. No. L8880) to induce the mice to establish a disseminated intravascular coagulation (DIC) model, and the blank group is injected intraperitoneally with the corresponding volume of physiological saline. After 2 hours, the mice are anesthetized by intraperitoneal injection of 1% pentobarbital sodium (40 mg/kg), and the tail is cut at a site of 3 millimeters (mm) from the tip of the tail of each mouse, and the tail is placed vertically in 37° C. physiological saline immediately after the first drop of blood is sucked up on filter paper to record the tail bleeding time.
In addition to the blank group, the other groups use the method of the embodiment 1 to prepare the LPS-induced DIC model in mice, and the administration group is given drug intervention 1 hour before modeling.

The target in assay [6] is T1, PHD2 protein (Homo sapiens, UniProt Q9GZT9). Description: PHD2 enzyme activity, 2-oxogalarate-phenylenediamine method. Type of assay: biochemical. More on the design: purchased Abcam ab132273.
Protocol: 1 micromole per liter (μM) PHD2 inhibitor is incubated with 100 micrograms per milliliter (μg/mL) PHD2 protein (Abcam, Cat. No. ab132273) at 4° C. for 8 hours, and its inhibitory effect on PHD2 enzyme activity is determined according to the 2-oxogalarate-phenylenediamine method.
100 μL of PHD2 enzyme solution incubated with the PHD2 inhibitor is taken and 100 μL of reaction substrate (300 μM of 2-oxogalarate, 150 μM of Fe^2+) is added, followed by 100 μL of 0.5 moles (M) of hydrogen chloride (HCl) and 10 mg/mL of o-phenylenediamine, and the reaction is carried out at 95° C. for 15 minutes after mixing, so as to obtain a reaction product. The reaction product is centrifuged to taken the supernatant, 10 μL of 1.25 M of sodium hydroxide (NaOH) is added to terminate the reaction, and the fluorescence value of the reaction is determined using 340 nanometers (nm) excitation at the emission wavelength of 420 nm, the results are shown in FIG. 3B.
Assay [7] addresses T1, PHD2 protein. Description: Surface plasmon resonance (SPR) interaction analysis with PHD2. Type of assay: binding. The note with it: Biacore T200, CM5 chip, 1.56 μM to 200 μM, read-out: dissociation constants KD with PHD2 protein. On the procedure: The interaction between these active natural products and recombinant human PHD2 protein is analyzed by surface plasmon resonance (SPR) technique using a Biacore™ T200 surface plasmon resonance analyzer from GE healthcare. The CM5 chip is selected, the purified PHD2 protein is immobilized on the channel of the chip, and the active natural product solution as a mobile phase is flowed through the chip, with the concentration ranging from 1.56 μM to 200 μM. The flow rate of mobile phase is 30 μL/min, and the dissociation is monitored for 150 seconds.
For orientation: SPR reads the build-up and loss of mass on a sensor chip optically.

For assay [8], the system named is Pseudomonas aeruginosa infected mice. The assay can be described thus: Blood coagulation function in mice infected with Pseudomonas aeruginosa. Type of assay: in vivo, ICR (CD-1) mice. The note with it: plasma 24 hours after infection; polydatin 10, 20, 40 mg/kg i.p.; aspirin 30 mg/kg gavage; Daprodustat 15 mg/kg i.p.; vs model group. The procedure:
ICR (CD-1) male mice are taken and randomly divided into 7 groups (6 mice in each group), which are a blank control group, a model group, an aspirin positive control group (gavage at 30 mg/kg), a Daprodustat-positive control group (intraperitoneally injected at 15 mg/kg), and low, medium and high doses of polydatin group (intraperitoneally injected at 10 mg/kg, 20 mg/kg, 40 mg/kg). Mice are anesthetized by intraperitoneal injection of 1% pentobarbital sodium (40 mg/kg). Activated Pseudomonas aeruginosa (1×10^7/20 μL) is added dropwise into the nasal cavity of mice in the model group and each administration group, and an equal amount of physiological saline is dropped into the blank control group. The respective groups are administered at 0 and 8 hours after molding, respectively. 24 hours after infection, plasma is obtained by blood sampling from mouse eyeballs, and four indexes of coagulation (prothrombin time, activated partial […] and fibrinogen) are measured by a semi-automatic coagulation analyzer.

T1 sequence (Q9GZT9 whole entry): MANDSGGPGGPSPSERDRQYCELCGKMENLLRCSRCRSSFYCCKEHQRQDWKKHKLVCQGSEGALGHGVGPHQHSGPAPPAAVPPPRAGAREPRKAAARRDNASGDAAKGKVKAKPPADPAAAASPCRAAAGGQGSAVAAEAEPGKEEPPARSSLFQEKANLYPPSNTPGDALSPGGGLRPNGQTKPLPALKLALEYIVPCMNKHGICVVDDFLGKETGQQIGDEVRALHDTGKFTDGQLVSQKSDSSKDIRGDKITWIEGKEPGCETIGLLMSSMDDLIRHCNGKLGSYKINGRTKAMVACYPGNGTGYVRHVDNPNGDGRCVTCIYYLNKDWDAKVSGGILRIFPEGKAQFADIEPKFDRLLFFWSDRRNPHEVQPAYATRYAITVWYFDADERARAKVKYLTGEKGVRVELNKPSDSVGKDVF

As for `O=C(O)CNC(=O)c1c(O)c2ccccc2n(Cc2ccccc2)c1=O` [IOX2, N-[[1,2-dihydro-4-hydroxy-2-oxo-1-(phenylmethyl)-3-quinolinyl]carbonyl]-glycine], the collagen-VWF-platelet adhesion result in the assay on SD rat platelets [1] is “blocking the binding of collagen-VWF-platelet adhesion”. In the assay with binding of collagen-VWF, the “binding of collagen-VWF” value is “affecting the binding of collagen-VWF”. Also, the “platelet adhesion to collagen (fluorescence imaging)” value in the assay on SD rat platelets [2] was “inhibits platelet adhesion to collagen in a concentration-dependent manner”. In addition, the PHD2-mediated collagen-platelet adhesion entry with SD rat platelets [3] was “significantly reduces the occurrence of PHD2-mediated platelet adhesion”.
On to `CC(=O)N[C@@H](CS)C(=O)O` [N-acetylcysteine, reference compound], for which, in assay [4], the erythrocyte aggregation index entry was “significantly reduce”, the erythrocyte packed-cell volume result is “significantly reduce”, the mean platelet volume result is “improved” and the platelet number entry is listed as “significantly reduce”. Besides, in [4], the whole blood viscosity entry is recorded as “improved to a certain extent”.
With `CC(=O)Oc1ccccc1C(=O)O` [aspirin], the “pulmonary thrombi, Masson staining of lung tissues” value in assay [5] is reported as “significantly inhibit the formation of thrombus”. For the same compound, in [5] (vs LPS group), the tail bleeding time entry is on record as “significantly increase” and the tail bleeding volume entry was “significantly increase”.
For orientation: Kd means the equilibrium constant for the complex coming apart. For the compound `CC(C)=CCC[C@](C)(O[C@@H]1O[C@H](CO)[C@@H](O)[C@H](O)[C@H]1O)[C@H]1CC[C@]2(C)[C@@H]1[C@H](O)C[C@@H]1[C@@]3(C)CC[C@H](O)C(C)(C)[C@@H]3CC[C@]12C` [ginsenoside CK], the “inhibition of PHD2 enzyme activity” value on PHD2 protein [6] (ginsenoside CK at 0.5 μM, 5 μM, 50 μM) is “inhibit the PHD2 enzyme activity in a concentration gradient”. Besides, the Kd at PHD2 protein [7] came to 18 µM. Besides, in [4], the erythrocyte aggregation index entry is “significantly reduce”, the erythrocyte packed-cell volume result was “significantly reduce”, the mean platelet volume result was “improved” and the platelet number entry was “significantly reduce”. Besides, the whole blood viscosity result in assay [4] is reported as “improved to a certain extent”.
For `OC[C@H]1O[C@@H](Oc2cc(O)cc(/C=C/c3ccc(O)cc3)c2)[C@H](O)[C@@H](O)[C@@H]1O` [polydatin], in assay [8], the “activated partial thrombin time” value was “significantly prolong”, the “fibrinogen content in blood” value is reported as “reduced”, the prothrombin time entry was “significantly prolong” and the thrombin time entry is given as “significantly prolong”. Besides, on PHD2 protein [6] (polydatin at 0.1 μM, 1 μM, 10 μM), the “inhibition of PHD2 enzyme activity” value is listed as “inhibit the PHD2 enzyme activity in a concentration gradient”. For the same compound, on PHD2 protein [7], the Kd was determined as 23.5 µM.

For the origin of these results see patent US20250262229A1, “APPLICATION OF PHD2 INHIBITOR IN PREPARATION OF DRUGS FOR PREVENTION AND TREATMENT OF PLATELET THROMBUS” (Nankai University, priority 2024, published 2025).
